# Counter-ions that a name gives are not always drawn.
# Assays:
# ATM = ATM (Homo sapiens (Human), UniProt Q13315); assay: ATM in Cell Western Assay (pKAP1 in etoposide-treated MCF-7 cells); type: cell-based
# How it was run: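 Cells received compounds in a 10-dose, 3-fold series from a 1 μM final top concentration, then 100 μM etoposide, for 1 hr at 37° C. They were then fixed with paraformaldehyde and permeabilized with 0.1% Triton X-100. After immunostaining, plates were scanned on an infrared imager.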
# DNA-PK = DNA-PK (Homo sapiens (Human), UniProt P78527); assay: DNA-PK Enzyme-Linked Immunosorbent Assay (phosphorylation of GST-p53 (1-101) peptide); type: biochemical; details: ELISA
# Method: Assay of Compounds ATM and DNA-PK Inhibition
# remove wash solution, turn plate upside down onto a thin paper towel and centrifuge at 1000 rpm for 1 min to absorb all wash buffer. Clean the bottom of plate with moist lint free paper. Scan plate immediately using ODYSSEY CLx (LI-COR) for the best results. DNA-PK Enzyme-Linked Immunosorbent Assay:
# On day one, coat 96-well plate (ThermoFisher. Cat #: 442404) with GST-p53 (1-101) peptide (purified by Pharmaron, BCS department) by diluting 3 μg of GST-p53 each well with 0.1 M Na2CO3/NaHCO3, pH 9.6. Incubate the plate overnight at 4° C. The second day, remove coating buffer, wash 2× with PBST (1×PBS containing 0.1% Tween-20). Then add DNA-PK enzyme solution (Invitrogen, #PR9107A; the final DNA-PK concentration is 0.1 μg/mL), series dilution compounds (the final top concentration is 100 nM, 3 fold series dilution, with total 10 doses) and ATP solution (the final ATP concentration is 20 μM) to the 96-well plate. Incubate the plate at 25° C. for 1 hour. Then wash 3× with PBST (1×PBS containing 0.1% Tween-20). Block the plate with PBST+ 1% BSA at 4° C. overnight. The third day, wash 4× with PBST (1×PBS containing 0.1% Tween-20). Then add Phospho-p53 primary antibody (cell signaling Technology, #9286, Phospho-p53 (Ser15) (16G8) Mouse mAb) (1/1000) to each well. Seal with plate and incubate the plate for 1 h at 37° C. Wash 4× with PBST (1×PBS containing 0.1% Tween-20), add 100 μL of HRP-linked secondary antibody (Cell signaling Technology, #7076, Anti-mouse IgG, HRP-linked Antibody) (1/1000) to each well. Seal with tape and incubate the plate for 30 min at 37° C. Wash 4× with PBST (1×PBS containing 0.1% Tween-20), add 100 μL of TMB (Cell signaling Technology, #7004) substrate to each well. Seal with tape and incubate the plate for 10 min at 37° C. Then add 100 μL of Stop solution (Cell signaling Technology, #7002) to each well. Read the plate at 450 nm to detect absorption.
# [1] = pKAP1 in etoposide-treated MCF-7 cells
# [2] = MCF-7 cells, etoposide 100 μM, 1 hr, pKAP1 readout
# Sequence of ATM (Q13315 whole entry): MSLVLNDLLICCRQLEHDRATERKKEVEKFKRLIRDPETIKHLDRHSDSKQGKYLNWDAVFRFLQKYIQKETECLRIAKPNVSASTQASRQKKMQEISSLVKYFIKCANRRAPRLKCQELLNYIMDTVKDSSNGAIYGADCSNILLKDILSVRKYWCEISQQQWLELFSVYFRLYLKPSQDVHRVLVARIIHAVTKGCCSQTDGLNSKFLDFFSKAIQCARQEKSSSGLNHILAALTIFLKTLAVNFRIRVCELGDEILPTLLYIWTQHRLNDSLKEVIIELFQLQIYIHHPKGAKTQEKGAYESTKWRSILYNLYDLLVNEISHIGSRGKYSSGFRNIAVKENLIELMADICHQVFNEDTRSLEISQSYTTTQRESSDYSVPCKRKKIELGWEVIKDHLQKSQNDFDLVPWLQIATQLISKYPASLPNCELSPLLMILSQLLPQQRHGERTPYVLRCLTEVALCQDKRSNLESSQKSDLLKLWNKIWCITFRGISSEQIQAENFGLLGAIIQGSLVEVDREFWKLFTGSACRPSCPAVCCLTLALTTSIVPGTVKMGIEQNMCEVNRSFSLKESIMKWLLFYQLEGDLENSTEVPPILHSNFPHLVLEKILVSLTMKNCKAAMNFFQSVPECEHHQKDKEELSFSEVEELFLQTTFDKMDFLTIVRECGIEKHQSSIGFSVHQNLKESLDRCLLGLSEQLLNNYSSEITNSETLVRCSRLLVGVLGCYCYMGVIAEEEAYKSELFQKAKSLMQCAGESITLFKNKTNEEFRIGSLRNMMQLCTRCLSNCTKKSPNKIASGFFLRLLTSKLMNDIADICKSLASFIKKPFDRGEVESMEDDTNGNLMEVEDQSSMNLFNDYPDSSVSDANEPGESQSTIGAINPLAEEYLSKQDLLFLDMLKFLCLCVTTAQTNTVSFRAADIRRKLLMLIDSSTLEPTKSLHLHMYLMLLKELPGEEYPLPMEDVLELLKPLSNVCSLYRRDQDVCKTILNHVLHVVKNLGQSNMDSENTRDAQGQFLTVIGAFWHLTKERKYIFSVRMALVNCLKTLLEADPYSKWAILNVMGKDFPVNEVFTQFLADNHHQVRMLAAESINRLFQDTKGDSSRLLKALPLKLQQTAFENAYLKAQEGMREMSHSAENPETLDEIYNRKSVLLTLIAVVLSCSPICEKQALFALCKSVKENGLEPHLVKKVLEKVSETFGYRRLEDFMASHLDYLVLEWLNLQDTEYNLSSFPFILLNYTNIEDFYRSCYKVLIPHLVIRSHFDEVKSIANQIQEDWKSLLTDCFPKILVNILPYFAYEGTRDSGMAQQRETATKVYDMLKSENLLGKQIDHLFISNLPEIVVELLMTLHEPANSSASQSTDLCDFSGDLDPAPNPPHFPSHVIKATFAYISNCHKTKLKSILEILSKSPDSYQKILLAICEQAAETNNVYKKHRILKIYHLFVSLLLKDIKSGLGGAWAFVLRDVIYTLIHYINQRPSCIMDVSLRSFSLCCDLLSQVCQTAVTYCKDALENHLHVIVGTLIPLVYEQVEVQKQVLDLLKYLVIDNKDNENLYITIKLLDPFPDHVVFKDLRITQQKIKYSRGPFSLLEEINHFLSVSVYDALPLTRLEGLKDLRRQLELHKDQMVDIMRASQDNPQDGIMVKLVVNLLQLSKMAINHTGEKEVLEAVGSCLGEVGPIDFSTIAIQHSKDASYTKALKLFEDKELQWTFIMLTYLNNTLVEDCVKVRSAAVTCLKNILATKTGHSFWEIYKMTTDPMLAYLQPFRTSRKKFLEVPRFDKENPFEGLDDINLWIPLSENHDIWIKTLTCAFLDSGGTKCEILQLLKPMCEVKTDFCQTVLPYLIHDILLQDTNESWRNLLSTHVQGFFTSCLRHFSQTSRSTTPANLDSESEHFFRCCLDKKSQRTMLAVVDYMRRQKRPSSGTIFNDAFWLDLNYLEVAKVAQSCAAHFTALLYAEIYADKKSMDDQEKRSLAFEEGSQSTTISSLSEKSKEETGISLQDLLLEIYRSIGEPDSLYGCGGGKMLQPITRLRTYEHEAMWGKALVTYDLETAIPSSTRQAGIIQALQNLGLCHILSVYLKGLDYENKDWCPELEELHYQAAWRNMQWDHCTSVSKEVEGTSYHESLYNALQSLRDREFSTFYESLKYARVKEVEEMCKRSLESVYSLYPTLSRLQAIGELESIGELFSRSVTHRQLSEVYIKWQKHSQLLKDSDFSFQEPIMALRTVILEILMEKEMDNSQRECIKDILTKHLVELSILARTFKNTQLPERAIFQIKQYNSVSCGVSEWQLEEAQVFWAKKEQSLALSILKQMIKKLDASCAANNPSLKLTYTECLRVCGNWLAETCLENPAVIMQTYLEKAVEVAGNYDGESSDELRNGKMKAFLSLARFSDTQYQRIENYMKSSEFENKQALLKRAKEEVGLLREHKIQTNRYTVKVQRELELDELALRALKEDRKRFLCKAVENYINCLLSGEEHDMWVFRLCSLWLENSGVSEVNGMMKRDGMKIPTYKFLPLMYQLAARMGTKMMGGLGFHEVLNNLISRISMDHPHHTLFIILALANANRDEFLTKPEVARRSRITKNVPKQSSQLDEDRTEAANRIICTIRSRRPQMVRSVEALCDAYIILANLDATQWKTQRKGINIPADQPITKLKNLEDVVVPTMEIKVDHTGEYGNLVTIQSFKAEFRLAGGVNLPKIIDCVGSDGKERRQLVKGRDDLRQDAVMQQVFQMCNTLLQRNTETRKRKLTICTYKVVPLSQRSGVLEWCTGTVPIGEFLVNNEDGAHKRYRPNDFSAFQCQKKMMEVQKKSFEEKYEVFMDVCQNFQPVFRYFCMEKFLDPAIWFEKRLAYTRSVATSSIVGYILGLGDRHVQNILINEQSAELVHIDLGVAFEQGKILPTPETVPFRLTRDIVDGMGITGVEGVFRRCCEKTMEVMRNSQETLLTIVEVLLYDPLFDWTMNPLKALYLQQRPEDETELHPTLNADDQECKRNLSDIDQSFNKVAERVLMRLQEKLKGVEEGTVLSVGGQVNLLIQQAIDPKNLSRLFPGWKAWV
Compound,IC50 (ATM; [1]) [µM],also measured
"CN(C)CCCOc1ccc(-c2ccc3ncc4c(c3c2)C2(CC2)C(=O)N4C)cn1 [Example 1, 8′-(6-(3-(Dimethylamino)propoxy)pyridin-3-yl)-3′-methylspiro [cyclopropane-1,1′-pyrrolo[2,3-c]quinolin]-2′(3′-H)-one]",–,IC50 (ATM; [2]): 0.001 to 0.1 µM; IC50 (DNA-PK; ATP 20 μM): 0.001 to 0.1 µM
"CN(C)CCCOc1ncc(-c2ccc3ncc4c(c3c2)C2(CCCC2)C(=O)N4C)cc1NS(=O)(=O)c1ccccc1 [Example 2, N-(2-(3-(Dimethylamino)propoxy)-5-(3′-methyl-2′-oxo-2′,3′-dihydrospiro[cyelopentane-1,1′-pyrrolo[2,3-c]quinolin]-8′-yl)pyridin-3-yl) benzenesulfonamide]",–,IC50 (ATM; [2]): 0.001 to 0.1 µM; IC50 (DNA-PK; ATP 20 μM): 0.001 to 0.1 µM
"CN(C)CCCOc1ncc(-c2ccc3ncc4c(c3c2)C2(CCCCC2)C(=O)N4C)cc1NS(=O)(=O)c1ccccc1 [Example 3, N-(2-(3-(Dimethylamino)propoxy)-5-(3′-methyl-2′-oxo-2′,3′-dihydrospiro[cyclohexane-1,1′-pyrrolo[2,3-c]quinolin]-8′-yl)pyridin-3-yl) benzenesulfonamide]",–,IC50 (ATM; [2]): 0.001 to 0.1 µM; IC50 (DNA-PK; ATP 20 μM): 0.001 to 0.1 µM
"CN(C)CCCOc1ncc(-c2ccc3ncc4c(c3c2)C2(CC2)C(=O)N4C)cc1NS(=O)(=O)c1ccccc1 [Example 4, N-(2-(3-(Dimethylamino)propoxy)-5-(3′-methyl-2′-oxo-2′,3′-dihydrospiro[cyclopropane-1,1′-pyrrolo[2,3-c]quinolin]-8′-yl)pyridin-3-yl)benzenesulfonamide]",–,IC50 (ATM; [2]): < 0.0005 µM; IC50 (DNA-PK; ATP 20 μM): < 0.0005 µM
"CN(C)CCCOc1ncc(-c2ccc3ncc4c(c3c2)C2(CCC2)C(=O)N4C)cc1NS(=O)(=O)c1ccccc1 [Example 5, N-(2-(3-(Dimethylamino)propoxy)-5-(3′-methyl-2′-oxo-2′,3′-dihydrospiro [cyclobutane-1,1′-pyrrolo [2,3-c]quinolin]-8′-yl)pyridin-3-yl)benzenesulfonamide]",–,IC50 (ATM; [2]): 0.001 to 0.1 µM; IC50 (DNA-PK; ATP 20 μM): < 0.0005 µM
"CC(C)NCCOc1ncc(-c2cc3c4c(cnc3cc2F)N(C)C(=O)C42CN(c3nnn(C)n3)C2)cc1NS(C)(=O)=O [Example 552, N-(5-(7′-Fluoro-3′-methyl-1-(2-methyl-2H-tetrazol-5-yl)-2′-oxo-2′,3′-dihydrospiro[azetidine-3,1′-pyrrolo[2,3-c]quinolin]-8′-yl)-2-(2-(isopropylamino)ethoxy)pyridin-3-yl)methanesulfonamide]",> 0.1,–
"CC(C)NCCOc1ncc(-c2cc3c4c(cnc3cc2F)N(C)C(=O)C42CN(c3nnnn3C)C2)cc1NS(C)(=O)=O [Example 553, N-(5-(7′-Fluoro-3′-methyl-1-(1-methyl-1H-tetrazol-5-yl)-2′-oxo-2′,3′-dihydrospiro[azetidine-3,1′-pyrrolo[2,3-c]quinolin]-8′-yl)-2-(2-(isopropylamino)ethoxy)pyridin-3-yl)methanesulfonamide]",> 0.1,–
"CC(C)NCCOc1ncc(-c2cc3c4c(cnc3cc2F)N(C)C(=O)C42COC2)cc1NS(C)(=O)=O [Example 555, N-(5-(7′-Fluoro-3′-methyl-2′-oxo-2′,3′-dihydrospiro[oxetane-3,1′-pyrrolo[2,3-c]quinolin]-8′-yl)-2-(2-(isopropylamino)ethoxy)pyridin-3-yl)methanesulfonamide hydrochloride]",0.001 to 0.1,–
"CC(C)NCCOc1ncc(-c2ccc3ncc4c(c3c2F)C2(CCC2)C(=O)N4C)cc1NS(C)(=O)=O [Example 556, N-(5-(9′-Fluoro-3′-methyl-2′-oxo-2′,3′-dihydrospiro[cyclobutane-1,1′-pyrrolo[2,3-c]quinolin]-8′-yl)-2-(2-(isopropylamino)ethoxy)pyridin-3-yl)methanesulfonamide hydrochloride]",0.001 to 0.1,–
"CN(C)CCCOc1ncc(-c2cc(F)c3ncc4c(c3c2)C2(CCC2)C(=O)N4C)cc1NS(=O)(=O)N(C)C [Example 557, 8′-{6-[3-(Dimethylamino)propoxy]-5-[(dimethylsulfainoyl)amino]pyridin-3-yl}-6′-fluoro-3′-methyl-2′,3′-dihydrospiro [cyclobutane-1,1′-pyrrolo[2,3-c]quinoline]-2′-one]",0.001 to 0.1,–
"CC(C)NCCOc1ncc(-c2cc3c4c(nnc3cc2F)N(C)C(=O)C42CCC2)cc1NS(C)(=O)=O [Example 558, N-(5-(7′-Fluoro-3′-methyl-2′-oxo-2′,3′-dihydrospiro[cyclobutane-1,1′-pyrrolo [2,3-c]cinnolin]-8′-yl)-2-(2-(isopropylamino)ethoxy)pyridin-3-yl)methanesulfonamide]",> 0.1,–
"CC(C)NCCOc1ncc(-c2cc3c4c(cnc3cc2F)N(C)C(=O)C42CC(F)C2)cc1NS(C)(=O)=O (stereo not drawn) [Example 560, cis-N-(5-(3,7′-Difluoro-3′-methyl-2′-oxo-2′,3′-dihydrospiro[cyclobutane-1,1′-pyrrolo[2,3-c]quinolin]-8′-yl)-2-(2-(isopropylamino)ethoxy)pyridin-3-yl)methanesulfonamide]",0.001 to 0.1,–
"CC(C)NCCOc1ncc(-c2ccc3ncc4c(c3n2)C2(CCC2)C(=O)N4C)cc1NS(C)(=O)=O [Example 561, N-(5-[7-Methyl-8-oxo-7,8-dihydrospiro[cyclobutane-1,9-pyrrolo[2,3-c]1,5-naphthyridin]-2-yl]-2-[2-[(propan-2-yl)amino]ethoxy]pyridin-3-yl) methanesulfonamide]",0.001 to 0.1,–
"CC(C)NCCOc1ncc(-c2cc3c4c(cnc3cn2)N(C)C(=O)C42CCC2)cc1NS(C)(=O)=O [Example 562, N-(2-(2-(Isopropylamino)ethoxy)-5-(3′-methyl-2′-oxo-2′,3′-dihydrospiro [cyclobutane-1,1′-pyrrolo[2,3-c] [1,7]naphthyridin]-8′-yl)pyridin-3-yl)methanesulfonamide]",> 0.1,–

# More lines, main results first:
IC50 (ATM; [1]) [µM],Compound,also measured
0.001 to 0.1,"CN1C(=O)C2(CCC2)c2c1cnc1ccc(-c3cnc(N4CCC(N(C)C)C4)c(NS(C)(=O)=O)c3)cc21 (racemic) [Example 351, (rac)-N-(2-(3-(Dimethylamino)pyrrolidin-1-yl)-5-(3′-methyl-2′-oxo-2′,3′-dihydrospiro[cyclobutane-1,1′-pyrrolo[2,3-c]quinolin]-8′-yl)pyridin-3-yl)methanesulfonamide]",IC50 (DNA-PK; 20 μM ATP): 0.001 to 0.1 µM
0.001 to 0.1,"CN1C(=O)C2(CCC2)c2c1cnc1ccc(-c3cnc(N4CCC(N5CCCCC5)C4)c(NS(C)(=O)=O)c3)cc21 (racemic) [Example 352, (rac)-N-(5-(3′-Methyl-2′-oxo-2′,3′-dihydrospiro[cyclobulane-1,1′-pyrrolo[2,3-c]quinolin]-8′-yl)-2-(3-(piperidin-1-yl)pyrrolidin-1-yl)pyridin-3-yl)methanesulfonamide hydrochloride]",IC50 (DNA-PK; 20 μM ATP): 0.001 to 0.1 µM
> 0.1,"COC(=O)c1cc(-c2ccc3ncc4c(c3c2)C2(CCC2)C(=O)N4C)cc(NS(C)(=O)=O)c1OCCCN(C)C [Example 559, Methyl 2-(3-(dimethylamino)propoxy)-5-(3′-methyl-2′-oxo-2′,3′-dihydrospiro[cyclobutane-1,1′-pyrrolo[2,3-c]quinolin]-8′-yl)-3-(methylsulfonamido)benzoate]",–
0.001 to 0.1,"CN(C)CCCOc1c(C#N)cc(-c2ccc3ncc4c(c3c2)C2(CCC2)C(=O)N4C)cc1NS(C)(=O)=O [Example 563, N-(3-Cyano-2-(3-(dimethylamino)propoxy)-5-(3′-methyl-2′-oxo-2′,3′-dihydrospiro[cyclobutane-1,1′-pyrrolo[2,3-c]quinolin]-8′-yl)phenyl)methanesulfonamide]",–
> 0.1,"CN(C)CCCOc1c(NS(C)(=O)=O)cc(-c2ccc3ncc4c(c3c2)C2(CCC2)C(=O)N4C)cc1C(=O)N(C)C [Example 564, 2-(3-(Dimethylamino)propoxy)-N,N-dimethyl-5-(3′-methyl-2′-oxo-2′,3′-dihydrospiro[cyclobutane-1,1′-pyrrolo[2,3-c]quinolin]-8′-yl)-3-(methylsulfonamido)benzamide]",–
> 0.1,"CNC(=O)c1cc(-c2ccc3ncc4c(c3c2)C2(CCC2)C(=O)N4C)cc(NS(C)(=O)=O)c1OCCCN(C)C [Example 565, 2-(3-(Dimethylamino)propoxy)-N-methyl-5-(3′-methyl-2′-oxo-2′,3′-dihydrospiro[cyclobutane-1,1′-pyrrolo[2,3-c]quinolin]-8′-yl)-3-(methylsulfonamido)benzamide]",–

# Source: patent US12187742B2 (XRAD Therapeutics, Inc., priority 2018, dated 2025)
